Reference: patent US20180057505A1, “BICYCLIC HETEROARYL COMPOUNDS USEFUL AS INHIBITORS OF THE PAR-2 SIGNALING PATHWAY” (VERTEX PHARMACEUTICALS INCORPORATED, priority 2015, published 2018)
pIC50: −log10 of the molar value.

How the values were obtained:
[1] = In vivo rat pharmacokinetics experiments
Method: Example 99: Protocol for Testing PAR2 Compounds In Vivo Rat Pharmacokinetics Experiments
Compounds delivered by intravenous route were formulated using a solution formulation consisting of 5% N-methylpyrrolidone 10% Vitamin E-TPGS and 85% water (v/v/) or a solution formulation consisting of 25% N-methylpyrrolidone 35% polyethylene glycol 400 and 40% water (v/v/). Intravenous formulations were administered by a bolus injection (over approximately 10 seconds) using a hypodermic needle attaches to a syringe (tail vein). The dose volume was varied from 1 to 2 mL/kg and the dose was varied from 0.5 to 1 mg/kg. Compounds delivered orally were formulated as a solution formulation consisting of 5% N-methylpyrrolidone 10% Vitamin E-TPGS and 85% water (v/v/) or as fine suspension using a cellulose derivative suspending agent with or without the addition of a wetting agent/surfactant. Milling of large particles was performed as needed to reduce particle size using focused electroacoustic milling, homogenization or low energy media milling. A spray-dried solid dispersion was prepared for key compounds using 1:1 combination with cellulose derivatives. Test compounds were administered orally by gavage using a gavage plastic needle attached to a syringe. The dose volume was varied from 5 to 10 mL/kg and the dose was varied from 1 to 600 mg/kg.
Rats were bled by venipuncture (jugular vein) and the samples were collected into tubes containing K3EDTA. The tubes were placed on wet ice until processed. The samples were centrifuged for approximately 10 minutes (at approximately 4° C.) within approximately 30 minutes of collection to prepare plasma or diluted in citrate buffer (1:3) and stored frozen (approximately −30° C.). Thawed plasma or whole blood samples were extracted by protein precipitation using an organic solvent followed by centrifugation. The supernatants were separated by high-performance liquid chromatography coupled to mass spectrometry detection. A calibration curve was prepared using reference standard compounds spiked into either blank plasma or whole blood matrices and extracted similarly to unknown samples. Pharmacokinetic parameters were calculated using non-compartmental analysis.

[2] = tested on: carrageenan induced paw edema; test: Rat carrageenan-induced paw edema model; format: in vivo; conditions: given 0.5-3 hour before carrageenan
Method: Example 100: In Vivo Pharmacological Evaluation of PAR2 Pathway Inhibitors Subjects and Housing and Rat Carrageenan-Induced Paw Edema Model Male Sprague Dawley rats were housed in groups in a temperature controlled room and were acclimatized in the animal facility for at least three days prior to use. Experiments were performed during the light phase of the cycle. Animals have food and water ad libitum. Peripheral inflammation was induced by intra-plantar administration of 100 ul of a 1% w/volume (in saline) carrageenan solution under isoflurane anesthesia. The degree of swelling was assessed using the plethysmometer at 2-3-4-5-6 h after carrageenan injection. Test compound or vehicle (0.5% MC/0.1% SDS) was systemically administered at the indicated doses in a volume of 5 mL/kg either 0.5-3 hour before carrageenan challenge (Table 4).

[3] = tested on: UTP-stimulated Ca2+ response in HT-29 cells; test: Ca FLIPR TETRA assay, ANTAGONIST mode, activator 0.6 μM UTP; format: cell-based; conditions: HT-29 cells, activator 0.6 μM UTP
Procedure, shortened: (§1)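 Antagonist-mode FLIPR Tetra Ca2+ read: dye-loaded HT-29 cells preincubated 30 min at r.t. with compound (first read checks agonism alone), then challenged with final 3.1 U/mL trypsin, 8 μM SLIGKV, 1 U/mL thrombin or 0.6 μM UTP. Cells plated overnight in 1% FBS McCoy's; Calcium 5 loading 45 min 37 °C plus 15 min r.t.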

[4] = target: T1, PAR2 (HT-29 cells) (Homo sapiens, UniProt P55085); test: Ca FLIPR TETRA assay, ANTAGONIST mode, activator 3.1 U/mL trypsin; format: cell-based; conditions: HT-29 cells; activator 3.1 U/mL trypsin; Method A: maximal concentration of antagonist 0.1, 1 or 2 μM
T1 construct: host or cells: HT-29
T1 sequence (P55085 26-397): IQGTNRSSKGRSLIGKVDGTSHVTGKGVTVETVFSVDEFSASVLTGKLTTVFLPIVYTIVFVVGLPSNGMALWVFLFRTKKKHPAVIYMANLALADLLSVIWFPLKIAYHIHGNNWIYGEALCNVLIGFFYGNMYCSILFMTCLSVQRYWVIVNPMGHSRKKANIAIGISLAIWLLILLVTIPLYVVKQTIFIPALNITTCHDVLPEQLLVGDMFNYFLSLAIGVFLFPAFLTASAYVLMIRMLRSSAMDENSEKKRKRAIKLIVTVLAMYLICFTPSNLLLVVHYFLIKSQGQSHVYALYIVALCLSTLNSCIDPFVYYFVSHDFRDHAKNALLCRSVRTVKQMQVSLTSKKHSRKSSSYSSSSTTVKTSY
Procedure, shortened: as §1

[5] = target: T1, PAR2 (HT-29 cells); test: Ca FLIPR TETRA assay, ANTAGONIST mode, activator 8 μM SLIGKV; format: cell-based; conditions: HT-29 cells; activator 8 μM SLIGKV; Method A: maximal concentration of antagonist 0.1, 1 or 2 μM
Procedure, shortened: as §1

[6] = tested on: Thrombin-stimulated Ca2+ response in HT-29 cells; test: Ca FLIPR TETRA assay, ANTAGONIST mode, activator 1 U/mL Thrombin; format: cell-based; conditions: HT-29 cells, activator 1 U/mL Thrombin
Procedure, shortened: as §1

Compound | pIC50 ([3]; Homo sapiens) | pIC50 [4] | pIC50 [5] | pIC50 ([6]; Homo sapiens) | other results
CC(C)(C)c1cc(-c2ccc(Cl)c(F)c2)nc2cc(C(=O)N3CCN(c4cn[nH]c4)C(=O)C3(C)C)oc12 [Compound I-260] | – | – | – | – | Clp ([1]; intravenous bolus 0.5 to 1 mg/kg, non-compartmental analysis): 3.4 mL/min/kg; T ½ ([1]; non-compartmental analysis): 30.7 h; F ([1]; oral gavage, dose 1 to 600 mg/kg): 87%; % inhibition ([2]; dose 20 mg/kg): 0.4%
CC1(C)CCC(c2cc(C(C)(C)C)c3oc(C(=O)N4CCN(C(=O)[C@H]5CC[C@@](C)(C(=O)O)CC5)CC4(C)C)cc3n2)CC1 [Example I-316] | < 5.70 | 9.70 | 9.70 | < 5.70 | % inhibition ([2]; dose 15 mg/kg): 50%; % inhibition ([2]; dose 40 mg/kg): 66%; % inhibition ([2]; dose 100 mg/kg): 81%; % inhibition ([2]; dose 250 mg/kg): 79%
CC1(C)CCC(c2cc(C(C)(C)C)c3oc(C(=O)N4CCN(c5cccc(C(=O)O)n5)CC4(C)C)cc3n2)CC1 [Example I-449] | 6.18 | 8.72 | 9.05 | < 6.00 | % inhibition ([2]; dose 40 mg/kg): 49%; % inhibition ([2]; dose 100 mg/kg): 73%
CC(C)(C)c1cc(-c2ccc(Cl)c(F)c2)nc2cc(C(=O)N3CCN(C(=O)NS(C)(=O)=O)CC3(C)C)oc12 [Example I-527] | < 5.70 | 7.35 | 7.51 | < 5.70 | –
Cc1cc(C(=O)O)c(N2CCN(C(=O)c3cc4nc(-c5ccc(Cl)c(F)c5)cc(C(C)(C)C)c4o3)C(C)(C)C2)nn1 [Example I-528] | < 5.70 | 6.60 | 6.57 | < 5.70 | –
CC(C)(C)c1cc(-c2ccc(Cl)c(F)c2)nc2cc(C(=O)N3CCN(c4ccc(-c5nnn[nH]5)cn4)CC3(C)C)oc12 [Example I-529] | < 5.70 | 8.92 | 9.00 | < 5.70 | –
Cn1cnnc1N1CCN(C(=O)c2cc3nc(C4CCC(C)(C)CC4)cc(C(C)(C)C)c3o2)C(C)(C)C1 [Example I-530] | < 5.70 | 8.30 | 8.17 | < 5.70 | –
CC(C)(C)c1cc(-c2ccc(Cl)cc2)nc2cc(C(=O)N3CCN(c4ccc(-c5nnn[nH]5)cn4)CC3(C)C)oc12 [Example I-531] | < 5.70 | 8.55 | 8.82 | < 5.70 | –
Cc1ccc(N2CCN(C(=O)c3cc4nc(-c5ccc(Cl)c(F)c5)cc(C(C)(C)C)c4o3)C(C)(C)C2)nc1-c1nnn[nH]1 [Example I-532] | < 5.70 | 9.52 | 9.52 | < 5.70 | –
Cc1ccc(N2CCN(C(=O)c3cc4nc(C5CCC(C)(C)CC5)cc(C(C)(C)C)c4o3)C(C)(C)C2)nc1-c1nnn[nH]1 [Example I-533] | < 5.70 | 8.77 | 9.15 | < 5.70 | –
COc1cc(N2CCN(C(=O)c3cc4nc(-c5ccc(Cl)c(F)c5)cc(C(C)(C)C)c4o3)C(C)(C)C2)ncc1C(=O)O [Example I-534] | < 5.70 | 10.00 | 9.70 | < 5.70 | –
COc1nc(N2CCN(C(=O)c3cc4nc(C5CCC(C)(C)CC5)cc(C(C)(C)C)c4o3)C(C)(C)C2)ccc1C(=O)O [Example I-535] | – | 8.92 | 8.68 | – | pIC50 [3]: < 5.70; pIC50 [6]: < 5.70
CC(C)(C)c1cc(-c2ccc(Cl)cc2)nc2cc(C(=O)N3CCN(C(=O)[C@@H]4CC[C@H](C(=O)O)C4)CC3(C)C)oc12 [Example I-536] | < 5.70 | 8.66 | 8.64 | < 5.70 | –
Cc1ccc(N2CCN(C(=O)c3cc4nc(-c5ccc(Cl)cc5)cc(C(C)(C)C)c4o3)C(C)(C)C2)nc1-c1nnn[nH]1 [Example I-537] | < 5.70 | 9.40 | 9.52 | < 5.70 | –
Cc1c(C(=O)O)ccnc1N1CCN(C(=O)c2cc3nc(-c4ccc(Cl)c(F)c4)cc(C(C)(C)C)c3o2)C(C)(C)C1 [Example I-538] | 5.83 | 9.22 | 9.22 | 5.82 | –
CC1(C)CCC(c2cc(C(C)(C)C)c3oc(C(=O)N4CCN(c5ccc(-c6nnn[nH]6)cn5)CC4(C)C)cc3n2)CC1 [Example I-539] | – | 8.66 | 8.82 | – | pIC50 [3]: < 5.70; pIC50 [6]: < 5.70
CC(C)(C)c1cc(-c2ccc(Cl)c(F)c2)nc2cc(C(=O)N3CCN(c4cccc(C(=O)NS(C)(=O)=O)n4)CC3(C)C)oc12 [Example I-540] | < 5.70 | 9.52 | 9.52 | < 5.70 | –
CC(C)(C)c1cc(-c2ccc(Cl)c(F)c2)nc2cc(C(=O)N3CCC(NC(=O)NS(C)(=O)=O)CC3(C)C)oc12 (centres unmarked) [Example I-541] | < 5.70 | 9.00 | 8.82 | < 5.70 | –
CC(C)(C)c1cc(-c2ccc(Cl)c(F)c2)nc2cc(C(=O)N3CCN(S(=O)(=O)NC4CC4)CC3(C)C)oc12 [Example I-542] | < 5.70 | 7.55 | 7.49 | < 5.70 | –
CC(C)(C)c1cc(-c2ccc(Cl)c(F)c2)nc2cc(C(=O)N3CCN(C(=O)[C@@H]4CC[C@@H]4C(=O)O)CC3(C)C)oc12 [Example I-543] | < 5.70 | 9.10 | 9.22 | < 5.70 | –
Cc1ncc(N2CCN(C(=O)c3cc4nc(C5CCC(C)(C)CC5)cc(C(C)(C)C)c4o3)C(C)(C)C2)nc1C(=O)O [Example I-544] | < 5.70 | 8.48 | 8.60 | < 5.70 | –
CC(C)(C)c1cc(-c2ccc(Cl)c(F)c2)nc2cc(C(=O)N3CCN(C(=O)[C@@H]4CCC[C@@H]4C(=O)O)CC3(C)C)oc12 [Example I-545] | < 5.70 | 9.05 | 9.22 | < 5.70 | –
CC(C)(C)c1cc(-c2ccc(Cl)c(F)c2)nc2cc(C(=O)N3CCN(c4cccc(C(N)=O)n4)CC3(C)C)oc12 [Example I-546] | < 5.70 | 8.13 | 8.27 | < 5.70 | –
CC(C)(C)c1cc(-c2ccc(Cl)c(F)c2)nc2cc(C(=O)N3CCN(C(=O)CC4(C(=O)O)CCCCC4)CC3(C)C)oc12 [Example I-547] | < 5.70 | 10.00 | 10.05 | < 5.70 | –
CC(C)(C)c1cc(-c2ccc(Cl)c(F)c2)nc2cc(C(=O)N3CCC(N)CC3(C)C)oc12 (centres unmarked) [Example I-548] | 5.74 | 6.19 | 6.16 | < 5.70 | –
CNC1CCN(C(=O)c2cc3nc(-c4ccc(Cl)c(F)c4)cc(C(C)(C)C)c3o2)C(C)(C)C1 (centres unmarked) [Example I-549] | < 5.70 | 5.85 | 5.96 | < 5.70 | –
